According to the NIST ThermoML archive (doi:10.1016/j.fluid.2007.07.016):

Assay: xn = mol fraction of the nth substance listed
Conditions: 101 kPa, Liquid; for viscosity: Capillary tube (Ostwald / Ubbelohde) method; for speed of sound: Linear variable-path acoustic interferometer

Cc1cccc(C)c1 [1,3-dimethylbenzene] + C1CCOC1
Conditions | speed of sound, 288.15 K [m/s] | speed of sound, 298.15 K [m/s] | speed of sound, 308.15 K [m/s] | speed of sound, 318.15 K [m/s] | viscosity, 288.15 K [mPa·s] | viscosity, 298.15 K [mPa·s] | viscosity, 308.15 K [mPa·s] | viscosity, 318.15 K [mPa·s]
x2 = 0 | 1373.2 | 1326.6 | 1281 | 1243 | 0.6696 | 0.588 | 0.5229 | 0.4684
x2 = 0.0722 | 1370.9 | 1324 | 1278.1 | 1239.4 | 0.6615 | 0.5823 | 0.5193 | 0.4668
x2 = 0.1486 | 1368.1 | 1321 | 1274.8 | 1235.5 | 0.6528 | 0.5762 | 0.5151 | 0.4647
x2 = 0.2134 | 1365.6 | 1318.4 | 1272.1 | 1232.2 | 0.6449 | 0.5703 | 0.511 | 0.4621
x2 = 0.2804 | 1362.9 | 1315.6 | 1269.2 | 1228.7 | 0.6363 | 0.5638 | 0.5061 | 0.4587
x2 = 0.3536 | 1359.7 | 1312.5 | 1265.9 | 1224.9 | 0.6263 | 0.556 | 0.4999 | 0.4542
x2 = 0.4255 | 1356.4 | 1309.3 | 1262.6 | 1221.1 | 0.616 | 0.5477 | 0.4932 | 0.4489
x2 = 0.4864 | 1353.5 | 1306.4 | 1259.7 | 1217.8 | 0.6068 | 0.5401 | 0.4869 | 0.4438
x2 = 0.5476 | 1350.5 | 1303.4 | 1256.6 | 1214.4 | 0.5971 | 0.5321 | 0.48 | 0.4382
x2 = 0.6041 | 1347.5 | 1300.5 | 1253.7 | 1211.1 | 0.5879 | 0.5243 | 0.4732 | 0.4323
x2 = 0.6751 | 1343.6 | 1296.7 | 1249.9 | 1206.9 | 0.5757 | 0.5139 | 0.464 | 0.4241
x2 = 0.7396 | 1339.8 | 1293.1 | 1246.4 | 1203.1 | 0.5642 | 0.5038 | 0.455 | 0.4162
x2 = 0.8005 | 1336.1 | 1289.6 | 1243 | 1199.5 | 0.5529 | 0.4939 | 0.446 | 0.408
x2 = 0.8722 | 1331.6 | 1285.4 | 1238.9 | 1195.1 | 0.5392 | 0.4817 | 0.4347 | 0.3974
x2 = 0.9378 | 1327.3 | 1281.4 | 1235.2 | 1191.1 | 0.5261 | 0.4699 | 0.4237 | 0.387

C1CCOC1 [tetrahydrofuran] + Cc1ccccc1
Conditions | speed of sound, 288.15 K [m/s] | speed of sound, 298.15 K [m/s] | speed of sound, 308.15 K [m/s] | speed of sound, 318.15 K [m/s] | viscosity, 288.15 K [mPa·s] | viscosity, 298.15 K [mPa·s] | viscosity, 308.15 K [mPa·s] | viscosity, 318.15 K [mPa·s]
x1 = 0.0718 | 1357.7 | 1309.4 | 1264.6 | 1219.3 | 0.6406 | 0.5513 | 0.5013 | 0.4399
x1 = 0.1498 | 1356.3 | 1307.9 | 1262.7 | 1217.3 | 0.635 | 0.5491 | 0.5003 | 0.4415
x1 = 0.2283 | 1354.6 | 1306.2 | 1260.7 | 1215.2 | 0.6285 | 0.5459 | 0.498 | 0.4421
x1 = 0.2902 | 1353.1 | 1304.8 | 1259.1 | 1213.5 | 0.6231 | 0.5431 | 0.4956 | 0.4418
x1 = 0.3452 | 1351.7 | 1303.4 | 1257.6 | 1212 | 0.6176 | 0.5398 | 0.4929 | 0.4408
x1 = 0.4005 | 1350.1 | 1302 | 1255.9 | 1210.4 | 0.6113 | 0.5357 | 0.4894 | 0.4388
x1 = 0.4694 | 1347.8 | 1299.9 | 1253.7 | 1208.2 | 0.6027 | 0.5298 | 0.484 | 0.4352
x1 = 0.5368 | 1345.4 | 1297.7 | 1251.4 | 1205.9 | 0.5934 | 0.523 | 0.4775 | 0.4307
x1 = 0.6067 | 1342.8 | 1295.2 | 1248.8 | 1203.4 | 0.5834 | 0.5155 | 0.4704 | 0.4253
x1 = 0.6704 | 1340.1 | 1292.8 | 1246.3 | 1200.9 | 0.5736 | 0.508 | 0.463 | 0.4196
x1 = 0.7378 | 1337 | 1289.9 | 1243.5 | 1198.3 | 0.5626 | 0.4993 | 0.4544 | 0.4125
x1 = 0.8018 | 1333.8 | 1287 | 1240.7 | 1195.7 | 0.5515 | 0.4903 | 0.4453 | 0.405
x1 = 0.8714 | 1330.2 | 1284 | 1237.6 | 1192.8 | 0.5387 | 0.4797 | 0.4346 | 0.3957
x1 = 0.9368 | 1326.6 | 1280.7 | 1234.5 | 1190 | 0.5259 | 0.469 | 0.4237 | 0.3861
x1 = 1 | 1323.1 | 1277.6 | 1231.5 | 1187.2 | 0.5129 | 0.458 | 0.4125 | 0.3762

Cc1cc(C)cc(C)c1 [1,3,5-trimethylbenzene] + C1CCOC1
Conditions | speed of sound, 288.15 K [m/s] | speed of sound, 298.15 K [m/s] | speed of sound, 308.15 K [m/s] | speed of sound, 318.15 K [m/s] | viscosity, 288.15 K [mPa·s] | viscosity, 298.15 K [mPa·s] | viscosity, 308.15 K [mPa·s] | viscosity, 318.15 K [mPa·s]
x2 = 0 | 1412.3 | 1369.8 | 1325.2 | 1279 | 0.7592 | 0.6572 | 0.5792 | 0.5066
x2 = 0.0735 | 1406.8 | 1363.6 | 1318.5 | 1272.2 | 0.7428 | 0.6449 | 0.5698 | 0.5004
x2 = 0.1513 | 1400.3 | 1356.6 | 1311.2 | 1264.9 | 0.7259 | 0.6321 | 0.5602 | 0.4943
x2 = 0.2274 | 1393.5 | 1349.5 | 1303.9 | 1257.7 | 0.7089 | 0.6192 | 0.5502 | 0.4875
x2 = 0.2986 | 1386.7 | 1342.4 | 1296.7 | 1250.6 | 0.6927 | 0.6066 | 0.5402 | 0.4805
x2 = 0.3672 | 1379.7 | 1335.3 | 1289.6 | 1243.6 | 0.6767 | 0.594 | 0.5301 | 0.4732
x2 = 0.4305 | 1373.5 | 1328.9 | 1283.1 | 1237.3 | 0.6616 | 0.5821 | 0.5203 | 0.4658
x2 = 0.4912 | 1367.5 | 1322.9 | 1277 | 1231.5 | 0.647 | 0.5703 | 0.5106 | 0.4583
x2 = 0.5496 | 1361.9 | 1317.3 | 1271.4 | 1226 | 0.6326 | 0.5586 | 0.5008 | 0.4507
x2 = 0.6055 | 1356.8 | 1312 | 1266.1 | 1220.8 | 0.6186 | 0.5472 | 0.4911 | 0.4429
x2 = 0.6784 | 1350.4 | 1305.4 | 1259.4 | 1214.4 | 0.6 | 0.5318 | 0.4779 | 0.4322
x2 = 0.7516 | 1344 | 1298.8 | 1252.8 | 1207.9 | 0.5809 | 0.5159 | 0.4642 | 0.4208
x2 = 0.828 | 1337.4 | 1292.1 | 1246 | 1201.2 | 0.5609 | 0.499 | 0.4494 | 0.4084
x2 = 0.879 | 1333.2 | 1287.7 | 1241.6 | 1196.9 | 0.5469 | 0.4872 | 0.4388 | 0.3992
x2 = 0.9412 | 1328.2 | 1282.6 | 1236.4 | 1191.8 | 0.5299 | 0.4726 | 0.4258 | 0.3879
